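Five compound concentrations were applied to cells in 96-well plates for 48 hours; endpoints were derived by simple linear interpolation of the resulting dose-response curve. The concentration for 50% growth inhibition is given as GI50.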 Active and inactive are the calls of the source. No stated cut-off is given here; in the data, active = GI50 up to about 1.1 µM and inactive = higher.
Assays:
Assay in all cases: DTP human tumour cell line panel, 48 h
786-0 = tested on: 786-0
A498 = tested on: A498
A549 = tested on: A549
ACHN = tested on: ACHN
BT-549 = tested on: BT-549
CAKI-1 = tested on: CAKI-1
CCRF-CEM = tested on: CCRF-CEM
COLO 205 = tested on: COLO 205
DU-145 = tested on: DU-145
EKVX = tested on: EKVX
HCC 2998 = tested on: HCC 2998
HCT-116 = tested on: HCT-116
HCT-15 = tested on: HCT-15
HL-60 = tested on: HL-60
HOP-62 = tested on: HOP-62
HT-29 = tested on: HT-29
Hs-578T = tested on: Hs-578T
IGROV-1 = tested on: IGROV-1
K562 = tested on: K562
KM12 = tested on: KM12
LOX IMVI = tested on: LOX IMVI
M14 = tested on: M14
MCF7 = tested on: MCF7
MDA-MB-231 = tested on: MDA-MB-231
MDA-MB-435 = tested on: MDA-MB-435
MDA-N = tested on: MDA-N
MOLT-4 = tested on: MOLT-4
Malme-3M = tested on: Malme-3M
NCI-H226 = tested on: NCI-H226
NCI-H23 = tested on: NCI-H23
NCI-H460 = tested on: NCI-H460
NCI-H522 = tested on: NCI-H522
NCI/ADR-RES = tested on: NCI/ADR-RES
OVCAR-3 = tested on: OVCAR-3
OVCAR-4 = tested on: OVCAR-4
OVCAR-5 = tested on: OVCAR-5
OVCAR-8 = tested on: OVCAR-8
PC-3 = tested on: PC-3
RPMI-8226 = tested on: RPMI-8226
RXF 393 = tested on: RXF 393
SF-268 = tested on: SF-268
SF-295 = tested on: SF-295
SK-MEL-28 = tested on: SK-MEL-28
SK-MEL-2 = tested on: SK-MEL-2
SK-MEL-5 = tested on: SK-MEL-5
SK-OV-3 = tested on: SK-OV-3
SN12C = tested on: SN12C
SNB-19 = tested on: SNB-19
SNB-75 = tested on: SNB-75
SR = tested on: SR
SW-620 = tested on: SW-620
T47D = tested on: T47D
U-251 = tested on: U-251
UACC-62 = tested on: UACC-62
UO-31 = tested on: UO-31
HOP-92 = tested on: HOP-92
SF-539 = tested on: SF-539
TK-10 = tested on: TK-10
UACC-257 = tested on: UACC-257

Structure (SMILES): NCCCn1c(Cl)nc2ccccc21
- GI50 (786-0): > 100 µM (inactive)
- GI50 (A498): > 100 µM (inactive)
- GI50 (A549): > 100 µM (inactive)
- GI50 (ACHN): > 100 µM (inactive)
- GI50 (BT-549): > 100 µM (inactive)
- GI50 (CAKI-1): > 100 µM (inactive)
- GI50 (CCRF-CEM): > 100 µM (inactive)
- GI50 (COLO 205): > 100 µM (inactive)
- GI50 (DU-145): > 100 µM (inactive)
- GI50 (EKVX): > 100 µM (inactive)
- GI50 (HCC 2998): > 100 µM (inactive)
- GI50 (HCT-116): > 100 µM (inactive)
- GI50 (HCT-15): > 100 µM
- GI50 (HL-60): > 100 µM (inactive)
- GI50 (HOP-62): > 100 µM (inactive)
- GI50 (HT-29): > 100 µM (inactive)
- GI50 (Hs-578T): > 100 µM (inactive)
- GI50 (IGROV-1): > 100 µM (inactive)
- GI50 (K562): > 100 µM (inactive)
- GI50 (KM12): > 100 µM (inactive)
- GI50 (LOX IMVI): > 100 µM (inactive)
- GI50 (M14): > 100 µM (inactive)
- GI50 (MCF7): > 100 µM (inactive)
- GI50 (MDA-MB-231): > 100 µM (inactive)
- GI50 (MDA-MB-435): > 100 µM (inactive)
- GI50 (MDA-N): > 100 µM (inactive)
- GI50 (MOLT-4): > 100 µM (inactive)
- GI50 (Malme-3M): > 100 µM (inactive)
- GI50 (NCI-H226): > 100 µM (inactive)
- GI50 (NCI-H23): > 100 µM (inactive)
- GI50 (NCI-H460): > 100 µM (inactive)
- GI50 (NCI-H522): > 100 µM (inactive)
- GI50 (NCI/ADR-RES): > 100 µM (inactive)
- GI50 (OVCAR-3): > 100 µM (inactive)
- GI50 (OVCAR-4): > 100 µM (inactive)
- GI50 (OVCAR-5): > 100 µM (inactive)
- GI50 (OVCAR-8): > 100 µM (inactive)
- GI50 (PC-3): > 100 µM (inactive)
- GI50 (RPMI-8226): > 100 µM (inactive)
- GI50 (RXF 393): > 100 µM (inactive)
- GI50 (SF-268): > 100 µM (inactive)
- GI50 (SF-295): > 100 µM (inactive)
- GI50 (SK-MEL-28): > 100 µM (inactive)
- GI50 (SK-MEL-2): > 100 µM (inactive)
- GI50 (SK-MEL-5): > 100 µM (inactive)
- GI50 (SK-OV-3): > 100 µM (inactive)
- GI50 (SN12C): > 100 µM (inactive)
- GI50 (SNB-19): > 100 µM (inactive)
- GI50 (SNB-75): > 100 µM (inactive)
- GI50 (SR): > 100 µM (inactive)
- GI50 (SW-620): > 100 µM (inactive)
- GI50 (T47D): > 100 µM (inactive)
- GI50 (U-251): > 100 µM (inactive)
- GI50 (UACC-62): > 100 µM (inactive)
- GI50 (UO-31): > 100 µM (inactive)

Structure (SMILES): N=c1oc2ccccc2cc1-c1nc2ccccc2[nH]1
- GI50 (786-0): 15.4 µM (inactive)
- GI50 (A549): 74.1 µM (inactive)
- GI50 (ACHN): 16.9 µM (inactive)
- GI50 (BT-549): 27.5 µM (inactive)
- GI50 (CAKI-1): 43.9 µM (inactive)
- GI50 (CCRF-CEM): 14 µM (inactive)
- GI50 (COLO 205): 51.2 µM (inactive)
- GI50 (DU-145): 18.4 µM (inactive)
- GI50 (EKVX): 18.2 µM (inactive)
- GI50 (HCC 2998): 71.3 µM (inactive)
- GI50 (HCT-116): 49.1 µM (inactive)
- GI50 (HCT-15): 31.5 µM
- GI50 (HL-60): 7.05 µM (inactive)
- GI50 (HOP-62): 53 µM (inactive)
- GI50 (HOP-92): 2.23 µM (inactive)
- GI50 (HT-29): 36 µM (inactive)
- GI50 (Hs-578T): 41 µM (inactive)
- GI50 (IGROV-1): 18.9 µM (inactive)
- GI50 (K562): 18.9 µM (inactive)
- GI50 (KM12): 30.8 µM (inactive)
- GI50 (LOX IMVI): 32.5 µM (inactive)
- GI50 (M14): 70.8 µM (inactive)
- GI50 (MCF7): 19.9 µM (inactive)
- GI50 (MDA-MB-231): 22.4 µM (inactive)
- GI50 (MDA-MB-435): 15.5 µM (inactive)
- GI50 (MDA-N): 17.3 µM (inactive)
- GI50 (MOLT-4): 10.1 µM (inactive)
- GI50 (Malme-3M): 24.9 µM (inactive)
- GI50 (NCI-H226): > 100 µM (inactive)
- GI50 (NCI-H460): 49.1 µM (inactive)
- GI50 (NCI-H522): 1.89 µM (inactive)
- GI50 (NCI/ADR-RES): 22.3 µM (inactive)
- GI50 (OVCAR-4): > 100 µM (inactive)
- GI50 (OVCAR-5): > 100 µM (inactive)
- GI50 (OVCAR-8): 71.6 µM (inactive)
- GI50 (PC-3): 78 µM (inactive)
- GI50 (RPMI-8226): 26.3 µM (inactive)
- GI50 (RXF 393): 38.9 µM (inactive)
- GI50 (SF-268): 64.9 µM (inactive)
- GI50 (SF-295): 78.3 µM (inactive)
- GI50 (SF-539): 44.3 µM (inactive)
- GI50 (SK-MEL-28): 89.9 µM (inactive)
- GI50 (SK-MEL-2): 49.2 µM (inactive)
- GI50 (SK-MEL-5): 20.8 µM (inactive)
- GI50 (SK-OV-3): 13.6 µM (inactive)
- GI50 (SN12C): > 100 µM (inactive)
- GI50 (SNB-19): 98.9 µM (inactive)
- GI50 (SNB-75): 41.1 µM (inactive)
- GI50 (SR): 19.2 µM (inactive)
- GI50 (SW-620): 36.6 µM (inactive)
- GI50 (T47D): 16.7 µM (inactive)
- GI50 (TK-10): 17.7 µM (inactive)
- GI50 (U-251): 61.7 µM (inactive)
- GI50 (UACC-257): > 100 µM (inactive)
- GI50 (UACC-62): 41.4 µM (inactive)
- GI50 (UO-31): 12.1 µM (inactive)

Structure (SMILES): CC(=O)NC1=C(NCCCl)C(=O)c2ccccc2C1=O
- GI50 (786-0): 50.5 µM (inactive)
- GI50 (A549): 35.4 µM (inactive)
- GI50 (ACHN): 42.8 µM (inactive)
- GI50 (BT-549): 47.9 µM (inactive)
- GI50 (CCRF-CEM): 19.1 µM (inactive)
- GI50 (COLO 205): 28.4 µM (inactive)
- GI50 (DU-145): 30.5 µM (inactive)
- GI50 (EKVX): > 100 µM (inactive)
- GI50 (HCC 2998): 32.7 µM (inactive)
- GI50 (HCT-116): 20.5 µM (inactive)
- GI50 (HCT-15): 32.1 µM
- GI50 (HL-60): > 10 µM (inactive)
- GI50 (HOP-62): 64 µM (inactive)
- GI50 (HOP-92): 56.6 µM (inactive)
- GI50 (HT-29): 26.4 µM (inactive)
- GI50 (Hs-578T): 43.5 µM (inactive)
- GI50 (IGROV-1): 39.8 µM (inactive)
- GI50 (K562): 27.9 µM (inactive)
- GI50 (KM12): 31.8 µM (inactive)
- GI50 (M14): 13 µM (inactive)
- GI50 (MCF7): 35.2 µM (inactive)
- GI50 (MDA-MB-231): 36.7 µM (inactive)
- GI50 (MDA-MB-435): 16.6 µM (inactive)
- GI50 (MDA-N): 21.4 µM (inactive)
- GI50 (MOLT-4): 25.1 µM (inactive)
- GI50 (Malme-3M): 13.9 µM (inactive)
- GI50 (NCI-H226): 49.1 µM (inactive)
- GI50 (NCI-H23): 26.1 µM (inactive)
- GI50 (NCI-H460): 32.1 µM (inactive)
- GI50 (NCI-H522): 20.5 µM (inactive)
- GI50 (NCI/ADR-RES): 29.5 µM (inactive)
- GI50 (OVCAR-3): 49.5 µM (inactive)
- GI50 (OVCAR-4): 44.6 µM (inactive)
- GI50 (OVCAR-5): 81.8 µM (inactive)
- GI50 (OVCAR-8): 20 µM (inactive)
- GI50 (PC-3): 22.3 µM (inactive)
- GI50 (RPMI-8226): 40.9 µM (inactive)
- GI50 (RXF 393): 30 µM (inactive)
- GI50 (SF-268): 59.8 µM (inactive)
- GI50 (SF-295): 37.4 µM (inactive)
- GI50 (SF-539): 40.8 µM (inactive)
- GI50 (SK-MEL-28): 72.3 µM (inactive)
- GI50 (SK-MEL-5): 16.9 µM (inactive)
- GI50 (SK-OV-3): 59.2 µM (inactive)
- GI50 (SN12C): 34.7 µM (inactive)
- GI50 (SNB-19): 58.3 µM (inactive)
- GI50 (SNB-75): 24.3 µM (inactive)
- GI50 (SR): 30.8 µM (inactive)
- GI50 (SW-620): 25.4 µM (inactive)
- GI50 (T47D): 25.1 µM (inactive)
- GI50 (U-251): 39.1 µM (inactive)
- GI50 (UACC-257): 15 µM (inactive)
- GI50 (UACC-62): 20 µM (inactive)

Reference: ChEMBL document CHEMBL1201862, “PubChem BioAssay data set” (2004)
